Data on 18 compounds can be found in PubChem BioAssay (NCI).

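In this assay, cells in 96-well plates receive the compound at five concentrations for 48 hours. Endpoints are linearly interpolated between the surrounding concentrations. GI50 is the concentration that inhibits growth by half. TGI denotes the concentration required for complete inhibition of growth.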

For the first test, the system named is OVCAR-8 ovarian. The test can be described thus: NCI tumour cell line growth inhibition, 48 h.
Consider `CN1CCN(Cc2ccc(C(=O)Nc3cncc(C#Cc4cnc(N)c5ccccc45)c3)cc2C(F)(F)F)CC1`, for which the GI50 is 2.32 µM and the TGI is 5.38 µM.

For the compound `CC(=O)OCC1OC(O[C@@H]2C[C@H]3C(C)(C)[C@H](OC(C)=O)CC[C@]3(C)[C@H]3CCC4=C([C@@H](C)C[C@@H](O)[C@H](O)C(C)(C)O)CC[C@@]4(C)[C@@]32C)C(O)C(O)C1O` (some centres undefined), the GI50 is 15.9 µM and the TGI was 29.6 µM.

Turning to `N#CC(=C1SCS1)[N+](=O)[O-]`, the GI50 was 3.16 µM and the TGI was found to be 13.8 µM.

As to `CC(C)(C)OC(=O)n1cc(CNC(=S)Nc2ccccc2)c2ccccc21`, the GI50 is 16.9 µM and the TGI amounted to 35.4 µM.

In the case of `O=C(NNc1nc2c(F)cccc2n2cccc12)c1cnccn1`, the GI50 is 0.414 µM and the TGI is more than 81.6 µM.

In the case of `CN=C(N)N/N=C(\c1ccccc1)c1ccc(Br)cc1`, the GI50 was 0.369 µM and the TGI is 5.16 µM.

Consider `COc1cc(/C=C\[N+](=O)[O-])ccc1O`, for which the GI50 is 3.21 µM and the TGI was found to be 12.1 µM.

For the compound `C=CC(=O)N[C@H]1C=C(C)c2c(-c3cnc4ccccc4c3)c3c(N)ncnc3n2C1`, the GI50 was 16.7 µM and the TGI was more than 100 µM.

On to `CCOc1ccc(S(=O)(=O)/N=C2\C=C(SCC(=O)O)C(=O)c3ccccc32)cc1`, for which the GI50 is 2.82 µM and the TGI was 10.3 µM.

Consider `C[C@@H]1CC[C@@H]2[C@@H]1[C@H](OC(=O)/C=C/c1ccccc1)[C@]1(c3ccccc3)C[C@@H](OC(=O)CO)[C@@]2(C)O1`, for which the GI50 was 6.71 µM and the TGI amounted to 34.8 µM.

Regarding `O=C(c1ccc2ccccc2c1)c1c(C(F)(F)F)n([O-])c2cc(Cl)c(Cl)cc2[n+]1=O`, the GI50 is 1.61 µM and the TGI came out at 3.27 µM.

With `O=C(CSc1nc2ccc([N+](=O)[O-])cc2[nH]1)Nc1ccc(F)c(Cl)c1`, the GI50 is 3.04 µM and the TGI is more than 34.4 µM.

`C=C1C(=O)O[C@H]2[C@H]1CC/C(CNC(=O)c1c[nH]c3ccc(F)cc13)=C\CC[C@@]1(C)O[C@@H]21`: the GI50 was 2.61 µM and the TGI is 10.3 µM.

As for `Cc1nn(-c2ccc(F)cc2)c2ncnc(Nc3ccc(NC(=O)Nc4ccc(Cl)c(C(F)(F)F)c4)cc3)c12`, the GI50 was 2.87 µM and the TGI amounted to 10 µM.

With `O=C(CCN1CCN(c2cnc3ccccc3n2)CC1)c1csc2ccccc12`, the GI50 was more than 100 µM and the TGI was more than 100 µM.

For the compound `COc1cc2ncn(-c3cc(OCc4ccccc4Cl)c(C(N)=O)s3)c2cc1OC`, the GI50 is 0.23 µM and the TGI was more than 20.7 µM.

Regarding `Cc1ccc2c(C(C[N+](=O)[O-])c3cccs3)c(-c3ccccc3)[nH]c2c1` (centres undefined), the GI50 was 3.55 µM and the TGI was more than 33.3 µM.

`N/C(CC(=O)Nc1cc(C(F)(F)F)ccc1Cl)=N\O`: the TGI is more than 100 µM.

Another test has as its system HCT-116 colon. The test can be described thus: NCI tumour cell line growth inhibition, 48 h.
Turning to `CN1CCN(Cc2ccc(C(=O)Nc3cncc(C#Cc4cnc(N)c5ccccc45)c3)cc2C(F)(F)F)CC1`, the GI50 is 1.36 µM and the TGI came out at 2.7 µM.

Turning to `CC(=O)OCC1OC(O[C@@H]2C[C@H]3C(C)(C)[C@H](OC(C)=O)CC[C@]3(C)[C@H]3CCC4=C([C@@H](C)C[C@@H](O)[C@H](O)C(C)(C)O)CC[C@@]4(C)[C@@]32C)C(O)C(O)C1O` (some centres undefined), the GI50 is 14.2 µM and the TGI worked out at 27.2 µM.

On to `N#CC(=C1SCS1)[N+](=O)[O-]`, for which the GI50 was 0.346 µM and the TGI stood at 10.3 µM.

As for `CC(C)(C)OC(=O)n1cc(CNC(=S)Nc2ccccc2)c2ccccc21`, the GI50 was 15.2 µM and the TGI turned out to be 30.1 µM.

For `O=C(NNc1nc2c(F)cccc2n2cccc12)c1cnccn1`, the GI50 is 0.214 µM and the TGI came to 23.7 µM.

Consider `CN=C(N)N/N=C(\c1ccccc1)c1ccc(Br)cc1`, for which the GI50 is 0.309 µM and the TGI worked out at 3.3 µM.

As to `COc1cc(/C=C\[N+](=O)[O-])ccc1O`, the GI50 is 1.83 µM and the TGI turned out to be 3.43 µM.

Take `C=CC(=O)N[C@H]1C=C(C)c2c(-c3cnc4ccccc4c3)c3c(N)ncnc3n2C1`: the GI50 was 13.2 µM and the TGI was 34.7 µM.

In the case of `CCOc1ccc(S(=O)(=O)/N=C2\C=C(SCC(=O)O)C(=O)c3ccccc32)cc1`, the GI50 is 2.67 µM and the TGI is 10.3 µM.

For the compound `C[C@@H]1CC[C@@H]2[C@@H]1[C@H](OC(=O)/C=C/c1ccccc1)[C@]1(c3ccccc3)C[C@@H](OC(=O)CO)[C@@]2(C)O1`, the GI50 is 12.7 µM and the TGI is 27.6 µM.

Turning to `O=C(c1ccc2ccccc2c1)c1c(C(F)(F)F)n([O-])c2cc(Cl)c(Cl)cc2[n+]1=O`, the GI50 was 1.58 µM and the TGI was 2.92 µM.

With `O=C(CSc1nc2ccc([N+](=O)[O-])cc2[nH]1)Nc1ccc(F)c(Cl)c1`, the GI50 was 2.42 µM and the TGI was 10.6 µM.

Turning to `C=C1C(=O)O[C@H]2[C@H]1CC/C(CNC(=O)c1c[nH]c3ccc(F)cc13)=C\CC[C@@]1(C)O[C@@H]21`, the GI50 is 0.632 µM and the TGI came out at 1.98 µM.

In the case of `Cc1nn(-c2ccc(F)cc2)c2ncnc(Nc3ccc(NC(=O)Nc4ccc(Cl)c(C(F)(F)F)c4)cc3)c12`, the GI50 was 1.51 µM and the TGI stood at 5.07 µM.

Turning to `O=C(CCN1CCN(c2cnc3ccccc3n2)CC1)c1csc2ccccc12`, the GI50 was 36.2 µM and the TGI is more than 100 µM.

For the compound `COc1cc2ncn(-c3cc(OCc4ccccc4Cl)c(C(N)=O)s3)c2cc1OC`, the GI50 is 0.233 µM and the TGI is more than 22.1 µM.

As for `Cc1ccc2c(C(C[N+](=O)[O-])c3cccs3)c(-c3ccccc3)[nH]c2c1` (centres undefined), the GI50 was 1.31 µM and the TGI was 4.56 µM.

Compound `N/C(CC(=O)Nc1cc(C(F)(F)F)ccc1Cl)=N\O` yielded a TGI of more than 100 µM.

The subject of the next test is HL-60(TB) leukemia. The test can be described thus: NCI tumour cell line growth inhibition, 48 h.
Turning to `CN1CCN(Cc2ccc(C(=O)Nc3cncc(C#Cc4cnc(N)c5ccccc45)c3)cc2C(F)(F)F)CC1`, the GI50 is 1.12 µM and the TGI was determined as 2.99 µM.

For `CC(=O)OCC1OC(O[C@@H]2C[C@H]3C(C)(C)[C@H](OC(C)=O)CC[C@]3(C)[C@H]3CCC4=C([C@@H](C)C[C@@H](O)[C@H](O)C(C)(C)O)CC[C@@]4(C)[C@@]32C)C(O)C(O)C1O` (some centres undefined), the GI50 was 13 µM and the TGI is 28.8 µM.

`N#CC(=C1SCS1)[N+](=O)[O-]`: the GI50 is 0.618 µM and the TGI was determined as 6.36 µM.

As to `CC(C)(C)OC(=O)n1cc(CNC(=S)Nc2ccccc2)c2ccccc21`, the GI50 is 11.6 µM and the TGI was determined as 55.3 µM.

`O=C(NNc1nc2c(F)cccc2n2cccc12)c1cnccn1`: the GI50 is 0.409 µM and the TGI came to 4.74 µM.

Consider `CN=C(N)N/N=C(\c1ccccc1)c1ccc(Br)cc1`, for which the GI50 is 0.216 µM and the TGI came to 0.567 µM.

Consider `COc1cc(/C=C\[N+](=O)[O-])ccc1O`, for which the GI50 is 2.39 µM and the TGI worked out at 6.31 µM.

Regarding `C=CC(=O)N[C@H]1C=C(C)c2c(-c3cnc4ccccc4c3)c3c(N)ncnc3n2C1`, the GI50 was 29.8 µM and the TGI is more than 80.4 µM.

Turning to `CCOc1ccc(S(=O)(=O)/N=C2\C=C(SCC(=O)O)C(=O)c3ccccc32)cc1`, the GI50 is 2.35 µM and the TGI was 6.99 µM.

`C[C@@H]1CC[C@@H]2[C@@H]1[C@H](OC(=O)/C=C/c1ccccc1)[C@]1(c3ccccc3)C[C@@H](OC(=O)CO)[C@@]2(C)O1`: the GI50 is 14.9 µM and the TGI stood at 53.9 µM.

`O=C(c1ccc2ccccc2c1)c1c(C(F)(F)F)n([O-])c2cc(Cl)c(Cl)cc2[n+]1=O`: the GI50 is 1.81 µM and the TGI is 3.87 µM.

Regarding `O=C(CSc1nc2ccc([N+](=O)[O-])cc2[nH]1)Nc1ccc(F)c(Cl)c1`, the GI50 is 2.21 µM and the TGI is 6.26 µM.

Turning to `C=C1C(=O)O[C@H]2[C@H]1CC/C(CNC(=O)c1c[nH]c3ccc(F)cc13)=C\CC[C@@]1(C)O[C@@H]21`, the GI50 was 2.18 µM and the TGI was found to be 5.95 µM.

Consider `Cc1nn(-c2ccc(F)cc2)c2ncnc(Nc3ccc(NC(=O)Nc4ccc(Cl)c(C(F)(F)F)c4)cc3)c12`, for which the GI50 is 2.73 µM and the TGI is 8.1 µM.

In the case of `O=C(CCN1CCN(c2cnc3ccccc3n2)CC1)c1csc2ccccc12`, the GI50 is 35.2 µM and the TGI was more than 100 µM.

In the case of `COc1cc2ncn(-c3cc(OCc4ccccc4Cl)c(C(N)=O)s3)c2cc1OC`, the GI50 is 0.0741 µM.

In the case of `Cc1ccc2c(C(C[N+](=O)[O-])c3cccs3)c(-c3ccccc3)[nH]c2c1` (centres undefined), the GI50 is 1.14 µM and the TGI was determined as 14.6 µM.

On to `N/C(CC(=O)Nc1cc(C(F)(F)F)ccc1Cl)=N\O`, for which the TGI is more than 100 µM.

A further test deals with SK-MEL-5 melanoma. The test can be described thus: NCI tumour cell line growth inhibition, 48 h.
On to `CN1CCN(Cc2ccc(C(=O)Nc3cncc(C#Cc4cnc(N)c5ccccc45)c3)cc2C(F)(F)F)CC1`, for which the GI50 is 1.73 µM and the TGI is 3.12 µM.

With `CC(=O)OCC1OC(O[C@@H]2C[C@H]3C(C)(C)[C@H](OC(C)=O)CC[C@]3(C)[C@H]3CCC4=C([C@@H](C)C[C@@H](O)[C@H](O)C(C)(C)O)CC[C@@]4(C)[C@@]32C)C(O)C(O)C1O` (some centres undefined), the GI50 is 16.2 µM and the TGI came out at 29.7 µM.

On to `N#CC(=C1SCS1)[N+](=O)[O-]`, for which the GI50 is 3.25 µM and the TGI worked out at 13.8 µM.

In the case of `CC(C)(C)OC(=O)n1cc(CNC(=S)Nc2ccccc2)c2ccccc21`, the GI50 was 4.51 µM and the TGI turned out to be 16.6 µM.

`O=C(NNc1nc2c(F)cccc2n2cccc12)c1cnccn1`: the GI50 is 0.864 µM and the TGI was 4.56 µM.

For the compound `CN=C(N)N/N=C(\c1ccccc1)c1ccc(Br)cc1`, the GI50 was 0.335 µM and the TGI came to 1.29 µM.

Regarding `COc1cc(/C=C\[N+](=O)[O-])ccc1O`, the GI50 is 1.77 µM and the TGI was 3.24 µM.

On to `C=CC(=O)N[C@H]1C=C(C)c2c(-c3cnc4ccccc4c3)c3c(N)ncnc3n2C1`, for which the GI50 is 12.5 µM and the TGI turned out to be 25.2 µM.

On to `CCOc1ccc(S(=O)(=O)/N=C2\C=C(SCC(=O)O)C(=O)c3ccccc32)cc1`, for which the GI50 was 1.72 µM and the TGI stood at 3.1 µM.

On to `C[C@@H]1CC[C@@H]2[C@@H]1[C@H](OC(=O)/C=C/c1ccccc1)[C@]1(c3ccccc3)C[C@@H](OC(=O)CO)[C@@]2(C)O1`, for which the GI50 is 13.4 µM and the TGI worked out at 26.2 µM.

Consider `O=C(c1ccc2ccccc2c1)c1c(C(F)(F)F)n([O-])c2cc(Cl)c(Cl)cc2[n+]1=O`, for which the GI50 is 1.6 µM and the TGI came to 2.94 µM.

Take `O=C(CSc1nc2ccc([N+](=O)[O-])cc2[nH]1)Nc1ccc(F)c(Cl)c1`: the GI50 was 1.22 µM and the TGI was 3.03 µM.

In the case of `C=C1C(=O)O[C@H]2[C@H]1CC/C(CNC(=O)c1c[nH]c3ccc(F)cc13)=C\CC[C@@]1(C)O[C@@H]21`, the GI50 is 2.25 µM and the TGI worked out at 5.56 µM.

As to `Cc1nn(-c2ccc(F)cc2)c2ncnc(Nc3ccc(NC(=O)Nc4ccc(Cl)c(C(F)(F)F)c4)cc3)c12`, the GI50 was 3.39 µM and the TGI amounted to 12.1 µM.

Take `O=C(CCN1CCN(c2cnc3ccccc3n2)CC1)c1csc2ccccc12`: the GI50 was 60.3 µM and the TGI was more than 100 µM.

In the case of `COc1cc2ncn(-c3cc(OCc4ccccc4Cl)c(C(N)=O)s3)c2cc1OC`, the GI50 was 0.0993 µM and the TGI amounted to 3.13 µM.

Take `Cc1ccc2c(C(C[N+](=O)[O-])c3cccs3)c(-c3ccccc3)[nH]c2c1` (centres undefined): the GI50 is 1.07 µM and the TGI is 4.21 µM.

As for `N/C(CC(=O)Nc1cc(C(F)(F)F)ccc1Cl)=N\O`, the TGI was more than 100 µM.
